According to patent US20040018527A1, “Differential patterns of gene expression that predict for docetaxel chemosensitivity and chemo resistance” (priority 2002, published 2004):

Columns and labels:
[1] = system: MDA-MB-23 1 breast cancer cell line; conditions: MDA-MB-23 1 cells overexpressing heat shock protein 27; cited from earlier work
[2] = system: HSP27-overexpressing cell lines; conditions: cited from earlier work
[3] = system: locally advanced breast cancer; assay: phase II study with neoadjuvant docetaxel, clinical response (residual disease) after 4 cycles; assay type: in vivo, human
Description: From September 1999 to June 2001, patients with locally advanced breast cancer (primary cancers greater than 4 cm, or with clinically evident axillary metastases) were considered for a phase II study with neoadjuvant docetaxel. The inclusion criteria were 1) age greater than 18 years and a diagnosis of breast cancer confirmed by core needle biopsy, 2) premenopausal status accompanied by appropriate contraception, 3) adequate performance status, and 4) adequate liver and kidney function tests (all within 1.5 times the upper limit of normal). Exclusion criteria included 1) severe underlying chronic illness or disease, and 2) treatment with other chemotherapeutic drugs while on study.
Clinical staging and size of primary tumor was recorded at the start of treatment, at each cycle, and after completion of 4 cycles of chemotherapy. Tumor size (product of the two largest perpendicular diameters) measured before and after 4 cycles of neoadjuvant chemotherapy was used to compute the percentage of residual disease. The median residual disease was then calculated, and this degree of response was then used to divide the cancers into 2 groups of sensitive and resistant categories of approximately equal numbers before gene expression analysis.
Core biopsies of the primary cancers were undertaken before administration of single agent docetaxel as neoadjuvant treatment. Docetaxel at 100 mg/m2 was given every three weeks for a total of 4 cycles, and clinical response assessed after the fourth cycle, at 12 weeks. As the standard of care, patients were continued on neoadjuvant chemotherapy through the full 4 cycles unless there was clear documentation of progressive disease, defined as increase in tumor size of more than 25%. Primary surgery and standard adjuvant therapy was then administered following completion of neoadjuvant docetaxel. In order to maximize the likelihood of obtaining sufficient tissue, approximately six core biopsies using a Bard MaxCore Biopsy Instrument (#MC1410) were taken. Biopsies were performed under local anesthesia, using the same entry point, but reorienting the needle. Two to three core biopsy specimens were immediately transferred for snap freezing at −80° C. for cDNA array analysis. The remaining specimens were fixed in formalin for diagnostic and possible immunohistochemical analysis.
The clinical characteristics of the 24 patients enrolled in this phase II neoadjuvant study are included in Table 1. Before treatment, the median tumor size was 8 cm (range 4 to 30 cm). Prior to gene expression analysis, the sensitivity and resistance was defined based on the percentage of residual disease after treatment. It was determined that the median residual disease after chemotherapy was 30%. Then, it was arbitrarily defined that sensitive tumors were those with 25% residual disease or less and resistant tumors were those with greater than 25% residual disease, as this cut-off divides the numbers of patients almost equally into two groups for statistical comparison. In addition, the presenting tumors were large in this study of locally advanced breast cancer, and tumor regressions of at least 75% following chemotherapy would almost certainly represent clinically responsive disease.

Row | SMILES | association of HSP27 overexpression with drug resistance [1] | sensitivity to docetaxel [2] | resistant tumors with residual tumors 100% or greater of baseline ([3]; 3/13 resistant tumors) [%] | sensitive tumors with minimal residual disease (<10% residual tumor) ([3]; 5/11 sensitive tumors) [%] | residual disease, independent cohort ([3]; 6 additional patients of the same clinical study, all 6 sensitive tumors) | resistant tumors with residual tumors ≧60% ([3]; 7/13 resistant tumors) [%] | patients sensitive to docetaxel (25% residual disease or less) ([3]; 11 of 24 patients) [%] | patients resistant to docetaxel (greater than 25% residual disease) ([3]; 13 of 24 patients) [%] | median residual disease after chemotherapy ([3]; 24 patients, docetaxel 100 mg/m2 every three weeks, 4 cycles, tumor size after vs before, at 12 weeks) [%]
1 | COc1cccc2c1C(=O)c1c(O)c3c(c(O)c1C2=O)C[C@@](O)(C(=O)CO)C[C@@H]3O[C@H]1C[C@H](N)[C@H](O)[C@H](C)O1 [Adriamycin] | resistance |  |  |  |  |  |  |  | 
2 | CC(=O)O[C@@]12CO[C@@H]1C[C@H](O)[C@@]1(C)C(=O)[C@H](O)C3=C(C)[C@@H](OC(=O)[C@H](O)[C@@H](NC(=O)OC(C)(C)C)c4ccccc4)C[C@@](O)([C@@H](OC(=O)c4ccccc4)[C@H]21)C3(C)C [docetaxel] |  | remain sensitive | 23 | 45 | less than 25% | 58 | 46 | 54 | 30
